Reference: patent publication US20250381198A1 (Melt Pharmaceuticals, Inc., priority 2024, published 2025)
Marks after values point to notes of the source that are not given here.

Test system: subjects undergoing cataract extraction with lens replacement (CELR)
Assay: Phase 3: adverse events (safety analysis set)
Type: in vivo, human
Procedure: The safety of MELT-300 was performed at baseline, in the course of surgery (intraoperatively), postoperatively on Day 1, and on Day 3+1 day post dose of study medication. Safety assessment included monitoring of AEs, vital sign measurements, and physical examinations.
An overview of adverse events (AEs) is provided in TABLE 57 for the safety analysis set. Reported data includes an overall summary of the presence of any AEs, treatment-emergent ocular adverse events (TEAEs), treatment-related TEAEs, TEAE of special interest (TEAESI), serious AEs (SEAs), and treatment-emergent SAEs (TESAE). Categories were not mutually exclusive. Results include the number of subjects, percent of subjects, and number of events in each category, respectively. A summary of treatment-emergence adverse events (TEAEs) by location, system organ class, and preferred term for the safety analysis set is provided in TABLE 58. A summary of treatment-related treatment-emergent adverse events (TRTEAEs) by system organ class, and preferred term for the safety analysis set is provided in TABLE 59. No SAEs (overall), TESAEs, or treatment-related TESAEs were observed. No SAEs resulting in death or discontinuation of the study was observed.

[1] = Location: Ocular, Safety analysis set
[2] = Location: Overall, Safety Analysis Set
[3] = Location: Overall, Safety analysis set

Compound: Cc1ncc2n1-c1ccc(Cl)cc1C(c1ccccc1F)=NC2 [Midazolam, 8-chloro-6-(2-fluorophenyl)-1-methyl-4H-imidazo[1,5-a][1,4]benzodiazepine]
- Any Unexpected Treatment-Related TEAE, subjects [1]: 0 n (%)
- TEAESI: Abuse-related AEs, events [1]: 0 #
- TEAESI: Abuse-related AEs, subjects [1]: 0 n (%)
- TEAESI: Cardiovascular AEs, events [1]: 0 #
- TEAESI: Cardiovascular AEs, subjects [1]: 1 (1.1) n (%)
- TEAESI: Ketamine emergence delirium, events [1]: 0 #
- TEAESI: Ketamine emergence delirium, subjects [1]: 0 n (%)
- TEAESI: Neurocognitive AEs, events [1]: 0 #
- TEAESI: Neurocognitive AEs, subjects [1]: 0 n (%)
- TEAESI: Oral/pharyngeal AEs, events [1]: 0 #
- TEAESI: Oral/pharyngeal AEs, subjects [1]: 0 n (%)
- TEAESI: Oversedation requiring the use of flumazenil, events [1]: 0 #
- TEAESI: Oversedation requiring the use of flumazenil, subjects [1]: 0 n (%)
- TEAESI: Respiratory AEs, events [1]: 0 #
- TEAESI: Respiratory AEs, subjects [1]: 1 (1.1) n (%)
- TEAE: Abnormal sensation in eye [2]: 0 n
- TEAE: Amnesia [2]: 0 n
- TEAE: Anxiety [2]: 0 n
- TEAE: Back pain [2]: 0 n
- TEAE: Balance disorder [2]: 0 n
- TEAE: Blood pressure increased [2]: 0 n
- TEAE: Blood pressure systolic increased [2]: 0 n
- TEAE: Bradycardia [2]: 0 n
- TEAE: Corneal abrasion [2]: 0 n
- TEAE: Corneal oedema [2]: 0 n
- TEAE: Cough [2]: 0 n
- TEAE: Dental local anaesthesia [2]: 0 n
- TEAE: Diplopia [2]: 0 n
- TEAE: Dizziness [2]: 0 n
- TEAE: Fatigue [2]: 0 n
- TEAE: Gastrointestinal disorders (System Organ Class) [2]: 0 n
- TEAE: Glare [2]: 0 n
- TEAE: Hiccups [2]: 0 n
- TEAE: Hypertension [2]: 0 n
- TEAE: Hypoaesthesia oral [2]: 0 n
- TEAE: Infections and infestations (System Organ Class) [2]: 0 n
- TEAE: Injury, poisoning and procedural complications (System Organ Class) [2]: 0 n
- TEAE: Instillation site pain [2]: 0 n
- TEAE: Investigations (System Organ Class) [2]: 0 n
- TEAE: Lacrimation increased [2]: 0 n
- TEAE: Lethargy [2]: 0 n
- TEAE: Musculoskeletal and connective tissue disorders (System Organ Class) [2]: 0 n
- TEAE: Myalgia [2]: 0 n
- TEAE: Nasal Discomfort [2]: 0 n
- TEAE: Nausea [2]: 0 n
- TEAE: Neck pain [2]: 0 n
- TEAE: Ocular discomfort [2]: 0 n
- TEAE: Oxygen saturation decreased [2]: 0 n
- TEAE: Photophobia [2]: 0 n
- TEAE: Photopsia [2]: 0 n
- TEAE: Post procedural hypotension [2]: 0 n
- TEAE: Procedural nausea [2]: 0 n
- TEAE: Procedural pain [2]: 0 n
- TEAE: Procedural vomiting [2]: 0 n
- TEAE: Product after taste [2]: 0 n
- TEAE: Product issues (System Organ Class) [2]: 0 n
- TEAE: Psychiatric disorders (System Organ Class) [2]: 0 n
- TEAE: Pyrexia [2]: 0 n
- TEAE: Sinusitis [2]: 0 n
- TEAE: Surgical and medical procedures (System Organ Class) [2]: 0 n
- TEAE: Taste disorder [2]: 0 n
- TEAE: Vascular disorders (System Organ Class) [2]: 0 n
- TEAE: Visual field defect [2]: 0 n
- TEAE: Visual impairment [2]: 0 n
- Any AE, events [3]: 24 #
- Any AE, subjects [3]: 16 (18.0) n (%)
- Any Grade 3+ TEAE, events [3]: 0 #
- Any Grade 3+ TEAE, subjects [3]: 0 n (%)
- Any SAE, events [3]: 0 #
- Any SAE, subjects [3]: 0 n (%)
- Any TEAE Resulting in Death, events [3]: 0 #
- Any TEAE Resulting in Death, subjects [3]: 0 n (%)
- Any TEAE Resulting in Study Drug Interruption, events [3]: 0 #
- Any TEAE Resulting in Study Drug Interruption, subjects [3]: 0 n (%)
- Any TEAE Resulting in Study Drug Withdrawal, events [3]: 0 #
- Any TEAE Resulting in Study Drug Withdrawal, subjects [3]: 0 n (%)
- Any TEAE, events [3]: 20 #
- Any TEAE, subjects [3]: 13 (14.6) n (%)
- Any TEAESI, events [3]: 2 #
- Any TEAESI, subjects [3]: 2 (2.2) n (%)
- Any TESAE, events [3]: 0 #
- Any TESAE, subjects [3]: 0 n (%)
- Any Treatment-Related TEAE Resulting in Death, events [3]: 0 #
- Any Treatment-Related TEAE Resulting in Death, subjects [3]: 0 n (%)
- Any Treatment-Related TEAE, events [3]: 4 #
- Any Treatment-Related TEAE, subjects [3]: 2 (2.2) n (%)
- Any Treatment-Related TEAESI, events [3]: 1 #
- Any Treatment-Related TEAESI, subjects [3]: 1 (1.1) n (%)
- Any Treatment-Related TESAE, events [3]: 0 #
- Any Treatment-Related TESAE, subjects [3]: 0 n (%)
- Any Unexpected TEAE, events [3]: 9 #
- Any Unexpected TEAE, subjects [3]: 6 (6.7) n (%)
- Any Unexpected Treatment-Related TEAE, events [3]: 0 #
- Any Unexpected Treatment-Related TEAE, subjects [3]: 0 n (%)
- TEAESI: Abuse-related AEs, events [3]: 0 #
- TEAESI: Abuse-related AEs, subjects [3]: 0 n (%)
- TEAESI: Cardiovascular AEs, events [3]: 1 #
- TEAESI: Cardiovascular AEs, subjects [3]: 1 (1.1) n (%)
- TEAESI: Ketamine emergence delirium, events [3]: 0 #
- TEAESI: Ketamine emergence delirium, subjects [3]: 0 n (%)
- TEAESI: Neurocognitive AEs, events [3]: 0 #
- TEAESI: Neurocognitive AEs, subjects [3]: 0 n (%)
- TEAESI: Oral/pharyngeal AEs, events [3]: 0 #
- TEAESI: Oral/pharyngeal AEs, subjects [3]: 0 n (%)
- TEAESI: Oversedation requiring the use of flumazenil, events [3]: 0 #
- TEAESI: Oversedation requiring the use of flumazenil, subjects [3]: 0 n (%)
- TEAESI: Respiratory AEs, events [3]: 1 #
- TEAESI: Respiratory AEs, subjects [3]: 1 (1.1) n (%)
- Treatment-related TEAE: Anxiety (Safety Analysis Set): 0 n
- Treatment-related TEAE: Blood pressure increased (Safety Analysis Set): 0 n
- Treatment-related TEAE: Bradycardia (Safety Analysis Set): 0 n
- Treatment-related TEAE: Cardiac disorders (System Organ Class) (Safety Analysis Set): 0 n
- Treatment-related TEAE: Dental local anaesthesia (Safety Analysis Set): 0 n
- Treatment-related TEAE: Dizziness (Safety Analysis Set): 0 n
- Treatment-related TEAE: Eye disorders (System Organ Class) (Safety Analysis Set): 0 n
- Treatment-related TEAE: Hiccups (Safety Analysis Set): 0 n
- Treatment-related TEAE: Injury, poisoning and procedural complications (System Organ Class) (Safety Analysis Set): 0 n
- Treatment-related TEAE: Investigations (System Organ Class) (Safety Analysis Set): 0 n
- Treatment-related TEAE: Lethargy (Safety Analysis Set): 0 n
- Treatment-related TEAE: Oxygen saturation decreased (Safety Analysis Set): 0 n
- Treatment-related TEAE: Procedural nausea (Safety Analysis Set): 0 n
- Treatment-related TEAE: Procedural vomiting (Safety Analysis Set): 0 n
- Treatment-related TEAE: Product after taste (Safety Analysis Set): 0 n
- Treatment-related TEAE: Product issues (System Organ Class) (Safety Analysis Set): 0 n
- Treatment-related TEAE: Psychiatric disorders (System Organ Class) (Safety Analysis Set): 0 n
- Treatment-related TEAE: Surgical and medical procedures (System Organ Class) (Safety Analysis Set): 0 n
- Treatment-related TEAE: Tachycardia (Safety Analysis Set): 0 n
- Treatment-related TEAE: Visual impairment (Safety Analysis Set): 0 n
